Data: publication PMC6123015 (Biochemistry, 2018)

Biological target: T1, macrophage migration inhibitory factor-1 (MIF-1) (Homo sapiens, UniProt P14174)
T1 sequence (P14174 2-115): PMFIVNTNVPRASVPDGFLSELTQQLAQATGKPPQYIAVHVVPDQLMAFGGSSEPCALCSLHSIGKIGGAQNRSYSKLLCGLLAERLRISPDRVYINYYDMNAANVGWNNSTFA
Test: HPP tautomerase inhibition kinetics with purified protein
Assay type: biochemical

SMILES: O=C(O)c1cccc(-c2cc(C(=O)O)ncc2C(=O)O)c1 [4-CPPC, 4-(3-Carboxyphenyl)-2,5pyridinedicarboxylic acid]
- Ki: 431 ± 37 µM
